Source: patent US12318361B2, “Methods for treating cardiovascular diseases” (Olatec Therapeutics LLC, priority 2017, dated 2025)

Columns and labels:
[1] = system: dogs, occlusive coronary thrombus formation; test: Thrombus formation in anesthetized dogs (anodal current to left circumflex coronary artery); assay type: in vivo; details: intravenous, about 30 min before anodal current; written in present tense
Protocol: To evaluate the effect of compound of Formula I or II on dynamic thrombus formation in vivo, the following experimental protocol, similar to the method of J. L. Romson et al. (Thromb. Res. 17:841-853, 1980), is performed.
Surgical Preparation and Instrumentation. Briefly, purpose-bred dogs are anesthetized, intubated and ventilated with room air. The heart is exposed by a left thoracotomy in the fifth intercostal space and suspended in a pericardial cradle. A 2-3 cm segment of the left circumflex coronary artery (LCCA) is isolated by blunt dissection. The artery is instrumented from proximal to distal with a flow probe, a stimulation electrode, and a Goldblatt clamp. The flow probe monitors the mean and phasic LCCA blood flow velocities. […]
Experimental Protocol: Dogs are randomized to one of four treatment protocols in which the control group receives saline intravenously and the three drug-treated groups are administered Rho kinase inhibitor compound intravenously. […] The number and frequency of cyclic flow variations (CFV) that precede formation of an occlusive thrombus are recorded. […]

caspase-1 = test: Caspase-1 activity in J774A.1 cell lysates after LPS and nigericin stimulation; assay type: cell-based, murine; details: 50 μM, J774A.1 cells, n=3, p<0.05
Protocol: J774A.1 murine macrophages cells were stimulated with 1 μg/ml lipopolysaccharide (LPS) for 4 hours and either nigericin (NIG, 10 μM) or ATP (5 mM) was added for 1 hour. OLT1177™ was added to the cells either 30 minutes following LPS stimulation or at the same time as ATP.
1 cell lysates following LPS and NIG stimulation in presence of 50 μM dapansutrile (OLT1177™). Caspase-1 activity is expressed as percent change of the mean value of each assay (n=3) with LPS/NIG set at 100%. Caspase-1 activity was reduced by 35% (p<0.05) in an enzymatic assay of cell lysate from stimulated cells in the presence of dapansutrile, comparing with control.

[2] = system: mice, intra-articular zymosan arthritis model; test: Zymosan-induced knee joint arthritis in mice; assay type: in vivo; details: 600 mg/kg oral gavage, 5 doses, 24 h after zymosan
Protocol: Zymosan injected directly into the knee joint of mice elicits an inflammatory response and is used as a model of arthritis (Verschure et al, Ann. Rheum Dis. 53:455-460, 1994). Endpoints measured in this model include knee joint swelling score, cytokine levels in the synovial tissue and microscopic pathology of the knee.
Arthritis was induced in mice by intra-articular injection of zymosan (180 μg) into the knee joint (at time zero) of both knees in each mouse. Mice were treated by oral gavage with vehicle (saline, n=5) or dapansutrile (drug) in vehicle (600 mg/kg, n=4) at times −25 hr, −13 hr, and −1 hr. After zymosan injection at time zero, mice were further treated with vehicle or dapansutrile (600 mg/kg) at times +11 hr and +23 hr. Mice were terminated 24 hours after the zymosan injection.
Macroscopic joint swelling was assessed on all knees after the skin is removed using a scoring system ranging from 0 to 3, with 0 being no swelling and 3 being severe swelling.
In addition, synovial membrane was taken from one knee per mouse and the cells were lysed for measurement of mouse IL-1β, using an ELISA kit from R&D Systems, Inc., following manufacturer's protocols. The results are shown as mean ±standard error of mean and statistical evaluation is performed (see FIG. 2).

[3] = system: IL-1β, IL-6 and IL-1α in hearts of mice; test: Cytokine levels in heart homogenates after in vivo lipopolysaccharide challenge; set-up: species or system C57BL/6J mice; details: 200 mg/kg IP every 12 h for 5 doses; LPS 5 mg/kg IP, 2 h; vs saline, P<0.05
Protocol: C57BL/6J mice male mice, 22-26 grams (Jackson Laboratories, Bar Harbor, ME) were treated with 200 mg/kg dapansutrile (OLT1177™) in 200 μl of saline or the matching volume of vehicle (saline) intraperitoneally (IP) every 12 hours for 5 doses. One hour after the last dose or saline, the animals were injected IP with 200 μl of lipopolysaccharide (LPS, E. coli, 055: B5, Sigma-Aldrich) at 5 mg/kg and sacrificed after 2 h. Cytokines were measured in hearts homogenates. Tissue homogenates were lysed using RIPA buffer (Sigma-Aldrich) containing a mixture of protease inhibitors (Roche, Indianapolis, IN), centrifuged at 13,000g for 20 minutes at 4° C., and the supernatants were assayed for cytokine levels of IL-1β, IL-6 and IL-1α. The cytokine concentrations were corrected for total protein content.
The dose of LPS that was used in the study covers ischemic inflammation, vascular inflammation and cell-mediated inflammation.

[4] = system: rats, thrombus formation in abdominal aorta; test: Thrombus formation in anesthetized rats (abdominal aorta stenosis and compression injury); assay type: in vivo, rats (CD-1); details: intravenous via tail vein, 5 min before injury; written in present tense
Protocol: To evaluate the effect of dapansutrile on thrombus formation in vivo, the following experimental protocol is performed.
Rats (CD-1; male; approximately 350 grams; Charles River, Raleigh, NC), are anesthetized with sodium pentobarbital (70 mg/kg i.p.). The abdomens are shaved and a 22 gauge intravenous catheter is inserted into a lateral tail vein. A midline incision is made and the intestines are wrapped in saline-soaked gauze and positioned so the abdominal aorta is accessible. […] All branches from the aorta in this section are ligated with 4-0 silk suture. A 2.5 mm diameter flow probe connected to a Transonic flow meter is placed on the artery and a baseline (pre-stenosis) flow is recorded. Two clips are placed around the artery decreasing the vessel diameter by approximately 80%. A second baseline flow measurement is taken (post-stenosis) and the hyperemic response is tested. Animals are then treated with either Rho kinase inhibitor compound or saline intravenously via tail vein catheter. Thrombosis is induced five minutes after treatment by repeated external compressions of the vessel with hemostatic forceps. Two minutes post-injury, the vessel compressions are repeated and a 10 minute period of flow monitoring is started. Animals are monitored continuously for a minimum of the first ten minutes post-injury. […]

`CS(=O)(=O)CCC#N` [OLT1177™, 3-methanesulfonyl-propionitrile] was tested, and the “number and frequency of cyclic flow variations that precede formation of an occlusive thrombus” value [1] was “significantly increases”, the “reduction of caspase-1 activity in cell lysate (LPS/NIG set at 100%)” value (caspase-1) was 35% and the “level of IL-1β in synovial membrane” value ([2]; vs untreated mice) was “significantly reduced”. For the same compound, the “macroscopic joint swelling (score 0 to 3)” value ([2]; vs vehicle-treated mice) was “significant reduction”, the “cytokine level of IL-1α in hearts” value [3] was “reduced” and the “cytokine level of IL-1β in hearts” value [3] was “reduced”. For the same compound, the “cytokine level of IL-6 in hearts” value [3] was “reduced”, the “histological evidence of thrombosis” value [4] was “decrease” and the “vessel injury-induced flow reduction” value [4] was “decrease”.
